Measurements as given in US9902710B2, “Substituted 6, 7-dialkoxy-3-isoquinoline derivatives as inhibitors of phosphodiesterase 10 (PDE 10A)” (Allergan, Inc., priority 2013, dated 2018).
Counter-ions that a name gives are not always drawn.

Target: PDE10A
Assay: Diaxonhit phosphodiesterase assay (TR-FRET, LANCE cAMP kit), PDE10A
Type: biochemical
Description: Diaxonhit Phosphodiesterase Assay (PDE10A and PDE4D3)
The PDE assay is based on the homogenous time-resolved fluorescence resonance energy transfer (TR-FRET) technology (LANCE® from Perkin Elmer). […] When there is PDE activity, resulting in the degradation of the cyclic nucleotide, the complex is not formed and a decrease in signal is observed.
The phosphodiesterase assay was developed using the LANCE® cAMP kit (PerkinElmer). The assay buffer contained HBSS with 5 mM HEPES, 0.1% BSA, and 1.5 mM MgCl2, pH 7.4. […] Chemical compounds were dissolved in DMSO (final concentration 2% (v/v)).
In a 384-well plate, 2 μL of the inhibitor and 3 μL PDE were added to the well, followed by the addition of 5 μl substrate biotinylated cAMP (1:5). After 60 min incubation at room temperature, 10 μL of assay detection mixture was added to the assay plate. After 1 h at room temperature, the signal was measured on EnVision™ (PerkinElmer).

Compound | IC50 [nM]
COc1cc2cncc(Cc3ccc4sccc4c3)c2cc1OC [Compound 3, 4-(benzo[b]thiophen-5-ylmethyl)-6,7-dimethoxyisoquinoline hydrochloride] | 100
COc1cc2cncc(Cc3ccc4cccc(OC)c4n3)c2cc1OC [Compound 21, 2-((6,7-dimethoxyisoquinolin-4-yl)methyl)-8-methoxyquinoline dihydrochloride] | 46
COc1cc2c(Cc3cnc4ccccc4c3)cnc(C)c2cc1OC [Compound 26, 3-((6,7-dimethoxy-1-methylisoquinolin-4-yl)methyl)quinoline dihydrochloride] | 49
COc1cc2cncc(Cc3ccc4cccc(OCCO)c4n3)c2cc1OC [Compound 42, 2-((2-((6,7-dimethoxyisoquinolin-4-yl)methyl)quinolin-8-yl)oxy)ethanol dihydrochloride] | 42
CCCc1ncc(Cc2cc3cc(OC)ccc3nc2O)c2cc(OC)c(OC)cc12 [Compound 49, 3-((6,7-dimethoxy-1-propylisoquinolin-4-yl)methyl)-6-methoxyquinolin-2-ol dihydrochloride] | 63
CCCc1ncc(Cc2cc3cc(C)ccc3nc2O)c2cc(OC)c(OC)cc12 [Compound 54, 3-((6,7-dimethoxy-1-propylisoquinolin-4-yl)methyl)-6-methylquinolin-2-ol dihydrochloride] | 151
CCCc1ncc(Cc2cc3cc(OC)ccc3nc2NCCNC(C)=O)c2cc(OC)c(OC)cc12 [Compound 76, N-(2-((3-((6,7-dimethoxy-1-propylisoquinolin-4-yl)methyl)-6-methoxyquinolin-2-yl)amino)ethyl)acetamide dihydrochloride] | 11
CCOC(=O)C(=O)Nc1cccc2ccc(Cc3cnc(CC)c4cc(OC)c(OC)cc34)nc12 [Compound 92, ethyl 2-((2-((1-ethyl-6,7-dimethoxyisoquinolin-4-yl)methyl)quinolin-8-yl)amino)-2-oxoacetate] | 495
CCc1ncc(Cc2cnc3ccc(N(C)S(C)(=O)=O)cc3c2)c2cc(OC)c(OC)cc12 [Compound 101, N-(3-((1-ethyl-6,7-dimethoxyisoquinolin-4-yl)methyl)quinolin-6-yl)-N-methylmethanesulfonamide] | 43
COC(=O)c1ccc(-c2nc3cc(Cc4cncc5cc(OC)c(OC)cc45)ccc3o2)cc1 [Compound 115, methyl 4-(5-((6,7-dimethoxyisoquinolin-4-yl)methyl)benzo[d]oxazol-2-yl)benzoate] | 61
CCCc1ncc(Cc2ccc3cccc(OCC(=O)NC4CC4)c3n2)c2cc(OC)c(OC)cc12 [Compound 126, N-cyclopropyl-2-((2-((6,7-dimethoxy-1-propylisoquinolin-4-yl)methyl)quinolin-8-yl)oxy)acetamide] | 71
CCOC(=O)COc1cccc2ccc(Cc3cnc(CC)c4cc(OC)c(OC)cc34)nc12 [Compound 128, ethyl 2-((2-((1-ethyl-6,7-dimethoxyisoquinolin-4-yl)methyl)quinolin-8-yl)oxy)acetate] | 59
CCCc1ncc(Cc2ccc3oc(=O)n(CC(N)=O)c3c2)c2cc(OC)c(OC)cc12 [Compound 148, 2-(5-((6,7-dimethoxy-1-propylisoquinolin-4-yl)methyl)-2-oxobenzo[d]oxazol-3(2H)-yl)acetamide] | 87
CCCc1ncc(Cc2cnc3ccc(OP(=O)(O)O)cc3c2)c2cc(OC)c(OC)cc12 [Compound 171, sodium 3-((6,7-dimethoxy-1-propylisoquinolin-4-yl)methyl)quinolin-6-yl phosphate] | 62

The next lines start with the values.

IC50 [nM] | Compound
39 | COc1cc2cnc(C)c(Cc3cnc4ccccc4c3)c2cc1OC [Compound 43, 3-((6,7-dimethoxy-3-methylisoquinolin-4-yl)methyl)quinoline dihydrocloride]
20 | CCCc1ncc(Cc2ccc3nc(C)ccc3c2)c2cc(OC)c(OC)cc12 [Compound 57, 6-((6,7-dimethoxy-1-propylisoquinolin-4-yl)methyl)-2-methylquinoline dihydrochloride]
11 | CCc1ncc(Cc2ccc3cccc(O)c3n2)c2cc(OC)c(OC)cc12 [Compound 83, 2-((1-ethyl-6,7-dimethoxyisoquinolin-4-yl)methyl)quinolin-8-ol]
13 | CCc1ncc(Cc2ccc3cccc(CNS(N)(=O)=O)c3n2)c2cc(OC)c(OC)cc12 [Compound 94, N-((2-((1-ethyl-6,7-dimethoxyisoquinolin-4-yl)methyl)quinolin-8-yl)methyl)sulfamide]
3.5 | CCc1ncc(Cc2cnc3ccc(NC(=O)C(N)=O)cc3c2)c2cc(OC)c(OC)cc12 [Compound 98, N^1-(3-((1-ethyl-6,7-dimethoxyisoquinolin-4-yl)methyl)quinolin-6-yl)oxalamide]
4.3 | COc1cc2c(Cc3ccc4nc(C)ccc4c3)cnc(C)c2cc1OC [Compound 105, 6-((6,7-dimethoxy-1-methylisoquinolin-4-yl)methyl)-2-methylquinoline dihydrochloride]
32 | CCNc1nc2ccc(OC)cc2cc1Cc1cncc2cc(OC)c(OC)cc12 [Compound 113, 3-((6,7-dimethoxyisoquinolin-4-yl)methyl)-N-ethyl-6-methoxyquinolin-2-amine dihydrochloride]
9.5 | CCCc1ncc(Cc2cc3cc(OC)ccc3nc2NC)c2cc(OC)c(OC)cc12 [Compound 129, 3-((6,7-dimethoxy-1-propylisoquinolin-4-yl)methyl)-6-methoxy-N-methylquinolin-2-amine]
6.5 | CCCc1ncc(Cc2cnc3ccc(OCC(N)=O)cc3c2)c2cc(OC)c(OC)cc12 [Compound 144, 2-((3-((6,7-dimethoxy-1-propylisoquinolin-4-yl)methyl)quinolin-6-yl)oxy)acetamide]
13 | COc1cc2c(Cc3ccc4cccc(N)c4n3)cnc(C)c2cc1OC [Compound 152, 2-((6,7-dimethoxy-1-methylisoquinolin-4-yl)methyl)quinolin-8-amine]
6 | COc1cc2cncc(Cc3cnc4ccc(O)c(C(F)(F)F)c4c3)c2cc1OC [Compound 161, 3-((6,7-dimethoxyisoquinolin-4-yl)methyl)-5-(trifluoromethyl)quinolin-6-ol]
